Key:
[1] = Solubility of CBD in water, MCT oil and the liposomal polymeric emulsion; assay type: physicochemical
Description: (E. Samara and M. Bialer, Drug Metab. Dispos., 16 (6) 875-879 (1988). This provides a maximum weight/weight percent of approximately 0.07%.
In certain embodiments of the present teaching, hyaluronic acid may be present in the polymeric-emulsion disclosed herein. Such embodiments also include the presence of water. […] In the present case, this value was slightly exceeded in testing the liposomal polymeric emulsion set forth herein in combination with hyaluronic acid, water and MCT as the hydrophobic component. […] That said, the polymeric liposomal emulsion set forth herein retains the ability to dissolve water soluble compounds even when incorporating oil-soluble compounds at a relatively high percentage or amount.

[2] = accepted value (Samara and Bialer 1988); cited from earlier work
[3] = liposomal polymeric emulsion with hyaluronic acid, water and MCT

C=C(C)[C@@H]1CCC(C)=C[C@H]1c1c(O)cc(CCCCC)cc1O [CBD, cannabidiol]
concentration of CBD in stable solution ([1]; MCT oil): 400000 µg/mL
concentration of CBD in stable solution, by weight ([1]; MCT oil): 40 % by weight
increase in CBD solubility compared to base MCT oil ([1]; liposomal polymeric emulsion vs base MCT oil): 1.125 fold
increase in CBD solubility compared to water ([1]; liposomal polymeric emulsion vs water): greater than 500 fold
concentration of CBD in solution [1, 3]: 450000 µg/mL
concentration of CBD in solution, by weight [1, 3]: 45 % by weight
maximum weight/weight percent of CBD in water ([1]; pure water, worked out from 0.7 μg per mL): approximately 0.07%
solubility of CBD in pure water [2]: 0.7 μg per mL

Source: US20220160647A1, “TRANSDERMAL DRUG DELIVERY DEVICE/TRANSDERMAL PATCH AND OTHER APPLICATIONS OF EMULSION FORMULATION” (First Necessity, LLC, priority 2020, published 2022)
